Test results as given in patent US20060089395A1, “Nf-kb activation inhibitors” (priority 2002, published 2006).
“Also recorded” adds a separate entry of the source. Like-named read-outs stand apart in the source and are kept apart here.

Legend:
IL-8 = assay: Inhibition of IL-8 production by TNFα stimulation in synovial fibroblasts derived from a rheumatoid patient (ELISA); type: cell-based, human; conditions: for IC50: synovial fibroblasts, 10 ng/ml TNFα, 3 days, read-out: Inhibition against Mediator Release IC50(nM) IL-8; for inhibition of the production of IL-8 (in words): rheumatic patient-derived synovial fibroblasts under TNFα stimulation
Description: (§1) Synovial fibroblasts (Human Synoviocyte (RA-Positive), Toyobo, T4040-05) were cultured for 3 days in a medium containing 10 ng/ml of TNFα and a test compound. IL-6 and IL-8 in the supernatant were measured by the ELISA method, and PGE2 (prostaglandin E2) was measured by the EIA method.

PGE2 = assay: Inhibition of PGE2 production by TNFα stimulation in synovial fibroblasts derived from a rheumatoid patient (EIA); type: cell-based, human; conditions: for IC50: synovial fibroblasts, 10 ng/ml TNFα, 3 days, read-out: Inhibition against Mediator Release IC50(nM) PGE2; for inhibition of the production of PGE2 (in words): rheumatic patient-derived synovial fibroblasts under TNFα stimulation
Description: as §1

[1] = system: Vascular smooth muscle cells of normal coronary artery (Cryo CASMC); assay: Inhibitory test against proliferation of vascular smooth muscle cells of normal coronary artery under proliferation stimulation (MTS assay); type: cell-based; conditions: FGF and EGF stimulation, 72 hours
Description: Vascular smooth muscle cells of normal coronary artery (Cryo CASMC) were cultured for 2 hours in the presence or absence of a test substance in DMEM medium containing 0.5% of FBS and insulin (5 u g/ml). Then, FGF and EGF were added for proliferation stimulation. The mixture was cultured for 72 hours and proliferation of the cells were measured by the MTS assay. The results aree shown in the following

IL-6 = assay: Inhibition of IL-6 production by TNFα stimulation in synovial fibroblasts derived from a rheumatoid patient (ELISA); type: cell-based, human; conditions: for IC50: synovial fibroblasts, 10 ng/ml TNFα, 3 days, read-out: Inhibition against Mediator Release IC50(nM) IL-6; for inhibition of the production of IL-6 (in words): rheumatic patient-derived synovial fibroblasts under TNFα stimulation
Description: as §1

NF-κ B = assay: Inhibitory activity of NF-κ B activation, luciferase reporter assay in HepG2 under TNF-α stimulation; type: cell-based, human
Procedure, shortened: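 HepG2 cells transiently transfected with a luciferase reporter driven by five tandem NF-κB binding sites, then incubated 6–24 h. Stimulated with TNF-α (40 ng/ml) with or without test compound for 4 h. Intracellular luciferase read by chemiluminescence; inhibition expressed relative to activity without compound.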

[2] = system: type II collagen induced arthritis; assay: Inhibitory test against type II collagen induced arthritis in mice; type: in vivo, Balb/c mice; conditions: 10 mg/kg intraperitoneally once in two days; day 44; score of the control = 100%
Description: Balb/c mice were immunized with heterologous type II collagen and Freund's complete adjuvant by subcutaneous or intraperitoneal injection. At 21 days after the treatment, these mice were immunized again with heterologous type II collagen and Freund's incomplete adjuvant by subcutaneous or intraperitoneal injection to develop arthritis.
A test substance suspended in an appropriate diluent or the diluent alone (negative control) was administered intraperitoneally once in two days from the day of the first immunization, and as for arthritis developed after the second immunization, clinical symptoms of each ankle joint of all foots were recorded day after day as numerous scores. When the score of the control measured on day 44 after administration of 10 mg/kg of the medicament of the present invention was expresses as 100%, rates of exacerbation (%) of the clinical symptoms of arthritis were 37.5 (Compound No. 4), 76.5 (Compound No. 90), 56.2 (Compound No. 11), 64.0 (Compound No. 88), and 0.0 (Compound No. 83).

[3] = Homo sapiens, 1 μg/mL, HepG2, TNF-α (40 ng/ml), 4 hours, read-out: Inhibitory Ratio of NF-κ B Activation(%) Drug Concentration 1 μg/mL
[4] = Homo sapiens, 10 μg/mL, HepG2, TNF-α (40 ng/ml), 4 hours, read-out: Inhibitory Ratio of NF-κ B Activation(%) Drug Concentration 10 μg/mL
[5] = 1 μg/mL, HepG2, TNF-α (40 ng/ml), 4 hours
[6] = 10 μg/mL, HepG2, TNF-α (40 ng/ml), 4 hours

| SMILES | IC50 (IL-8; Homo sapiens, Fibroblast, 72 h) [nM] | IC50 (PGE2; Homo sapiens, Fibroblast, 72 h) [nM] | Inhibitory Ratio of Proliferation(%) Compound Concentration 250 nM [1] [%] | Inhibitory Ratio of Proliferation(%) Compound Concentration 500 nM [1] [%] | IC50 (IL-6; Homo sapiens, Fibroblast, 72 h) [nM] | inhibition at 0.1 µg/mL (NF-κ B; Homo sapiens, HepG2, 4 h, 0.1 μg/ml, comparison table, reporter assay, read-out: Inhibitory Ratio of NF-κB Activation (%) 0.1 μg/ml) [%] | inhibition at 1 µg/mL (NF-κ B; Homo sapiens, HepG2, 4 h, 1 μg/ml, comparison table, reporter assay, read-out: Inhibitory Ratio of NF-κB Activation (%) 1 μg/ml) [%] | inhibition at 10 µg/mL (NF-κ B; Homo sapiens, HepG2, 4 h, 10 μg/ml, comparison table, reporter assay, read-out: Inhibitory Ratio of NF-κB Activation (%) 10 μg/ml) [%] | inhibition at 1 µg/mL (NF-κ B; [3]) [%] | inhibition at 10 µg/mL (NF-κ B; [4]) [%] | Inhibitory Ratio of NF-κ B Activation(%) Drug Concentration 1 μg/mL (NF-κ B; [5]) [%] | Inhibitory Ratio of NF-κ B Activation(%) Drug Concentration 10 μg/mL (NF-κ B; [6]) [%] | IC50 (IL-8) [nM] | IC50 (PGE2) [nM] | IC50 (IL-6) [nM] | inhibition of the production of IL-8 (in words) (IL-8) | inhibition of the production of PGE2 (in words) (PGE2) | rates of exacerbation (%) of the clinical symptoms of arthritis [2] [%] | inhibition of the production of IL-6 (in words) (IL-6) |
| --- | --- | --- | --- | --- | --- | --- | --- | --- | --- | --- | --- | --- | --- | --- | --- | --- | --- | --- | --- |
| CC(C)(C)C(=O)c1sc(NC(=O)c2cc(Cl)ccc2O)nc1C(C)(C)C [Compound No.199, 5-Chloro-N-{4-[(1,1-dimethyl)ethyl]-5-[(2,2-dimethyl)propionyl]thiazol-2-yl)-2-hydroxybenzamide] | 458 | 68 | 35.1 | 84.6 | 309 | 19.6 | 96.4 | 98.4 | 96.4 | 98.4 | – | – | – | – | – | – | – | – | – |
| O=C(Nc1cc(C(F)(F)F)cc(C(F)(F)F)c1)c1cc(C=Cc2ccccc2)ccc1O [Compound No. 19] | – | – | 34.0 | 88.6 | – | – | – | – | – | – | 95.5 | 96.9 | – | – | – | – | – | – | – |
| O=C(Nc1cc(C(F)(F)F)cc(C(F)(F)F)c1)c1cc(-c2ccccc2)ccc1O [Compound No. 23] | – | – | 31.6 | 89 | – | – | – | – | – | – | 91.8 | 96.8 | 876 | 809 | 540 | – | – | – | – |
| O=C(Nc1cc(C(F)(F)F)cc(C(F)(F)F)c1)c1cc(-c2ccsc2)ccc1O [Compound No. 29] | – | – | 52.2 | 90.4 | – | – | – | – | – | – | 81.7 | 92.9 | – | – | – | – | – | – | – |
| O=C(Nc1cc(C(F)(F)F)cc(C(F)(F)F)c1)c1ccc(Cl)cc1O [Compound No. 51] | – | – | 26.2 | 86.6 | – | – | – | – | – | – | 90.5 | 98.2 | 832 | 863 | 874 | – | – | – | – |
| O=C(Nc1cc(C(F)(F)F)cc(C(F)(F)F)c1)c1ccc2ccccc2c1O [Compound No. 71] | – | – | 81.6 | 92.4 | – | – | – | – | – | – | 89.6 | 95.0 | – | – | – | – | – | – | – |
| O=C(Nc1cc(C(F)(F)F)ccc1C(F)(F)F)c1cc(Br)ccc1O [Compound No. 83] | – | – | 27.1 | 87.9 | – | – | – | – | – | – | 95.7 | 98.3 | 62 | < 10 | < 10 | potently inhibited; also recorded: strongly inhibited | potently inhibited; also recorded: strongly inhibited | 0.0 | potently inhibited; also recorded: strongly inhibited |
| O=C(Nc1cc(C(F)(F)F)ccc1Cl)c1cc(Cl)ccc1O [Compound No. 88, 5-chloro-N-[2-chloro-5-(trifluoromethyl)phenyl]-2-hydroxybenzamide] | – | 33 | – | – | 88 | – | – | – | 94.8 | 97.1 | – | – | – | – | – | potently inhibited; also recorded: strongly inhibited | potently inhibited; also recorded: strongly inhibited | 64.0 | potently inhibited; also recorded: strongly inhibited |
| O=C(Nc1cc(C(F)(F)F)ccc1Cl)c1cc(Br)ccc1O [Compound No. 90] | – | – | 89.5 | 95.2 | – | – | – | – | – | – | 88.9 | 94.1 | 373 | 38 | 24 | potently inhibited; also recorded: strongly inhibited | potently inhibited; also recorded: strongly inhibited | 76.5 | potently inhibited; also recorded: strongly inhibited |
| COc1cc(NC(=O)c2cc(Br)ccc2O)cc(C(F)(F)F)c1 [Compound No. 93] | – | – | 12.1 | 87.2 | – | – | – | – | – | – | 84.5 | 97.2 | 753 | 47 | 130 | – | – | – | – |
| CC(C)(C)c1cc(NC(=O)c2cc(Br)ccc2O)cc(C(C)(C)C)c1 [Compound No. 140] | – | – | 4.3 | 86.1 | – | – | – | – | – | – | 70.9 | 82.0 | – | 21 | 808 | – | – | – | – |
| CC(C)(C)C(=O)c1sc(NC(=O)c2cc(Br)ccc2O)nc1C(C)(C)C [Compound No. 201] | – | – | 59.8 | 84.4 | – | – | – | – | – | – | 86.8 | 97.5 | 599 | 53 | 317 | – | – | – | – |
| CC(C)(C)c1nc(NC(=O)c2cc(Br)ccc2O)sc1N1CCN(c2ccccc2)CC1 [Compound No. 207, 5-Bromo-N-{4-[(1,1-dimethyl)ethyl]-5-(4-phenylpiperazin-1-yl)thiazol-2-yl}-2-hydroxybenzamide] | 832 | 834 | 52.5 | 84 | 641 | – | – | – | 92.5 | 95.9 | – | – | – | – | – | – | – | – | – |
| COc1ccc(Oc2ccc(C(F)(F)F)cc2NC(=O)c2cc(Cl)ccc2O)cc1 [Compound No. 253] | – | – | 84.1 | 91 | – | – | – | – | – | – | 96.3 | 99.5 | – | – | – | – | – | – | – |
| O=C(Nc1cc(C(F)(F)F)ccc1C(F)(F)F)c1cc(Br)ccc1O [Compound No. 268] | – | – | 5.6 | 9.8 | – | – | – | – | – | – | 87.1 | 98.4 | – | – | – | – | – | – | – |
| O=C(Nc1cc(C(F)(F)F)cc(C(F)(F)F)c1)c1cc(Br)ccc1O [compound 6] | – | – | 88.0 | 94.8 | – | – | – | – | – | – | 94.9 | 98.6 | 351 | 358 | 352 | – | – | – | – |
